From EP0877740B1, “THIOL DERIVATIVES WITH METALLOPEPTIDASE INHIBITORY ACTIVITY” (ZAMBON GROUP S.p.A., priority 1995, dated 1997) come the findings set out here.

One assay has as its target T1, NEP (Rattus norvegicus, UniProt P07861).
T1 sequence (P07861 1-750): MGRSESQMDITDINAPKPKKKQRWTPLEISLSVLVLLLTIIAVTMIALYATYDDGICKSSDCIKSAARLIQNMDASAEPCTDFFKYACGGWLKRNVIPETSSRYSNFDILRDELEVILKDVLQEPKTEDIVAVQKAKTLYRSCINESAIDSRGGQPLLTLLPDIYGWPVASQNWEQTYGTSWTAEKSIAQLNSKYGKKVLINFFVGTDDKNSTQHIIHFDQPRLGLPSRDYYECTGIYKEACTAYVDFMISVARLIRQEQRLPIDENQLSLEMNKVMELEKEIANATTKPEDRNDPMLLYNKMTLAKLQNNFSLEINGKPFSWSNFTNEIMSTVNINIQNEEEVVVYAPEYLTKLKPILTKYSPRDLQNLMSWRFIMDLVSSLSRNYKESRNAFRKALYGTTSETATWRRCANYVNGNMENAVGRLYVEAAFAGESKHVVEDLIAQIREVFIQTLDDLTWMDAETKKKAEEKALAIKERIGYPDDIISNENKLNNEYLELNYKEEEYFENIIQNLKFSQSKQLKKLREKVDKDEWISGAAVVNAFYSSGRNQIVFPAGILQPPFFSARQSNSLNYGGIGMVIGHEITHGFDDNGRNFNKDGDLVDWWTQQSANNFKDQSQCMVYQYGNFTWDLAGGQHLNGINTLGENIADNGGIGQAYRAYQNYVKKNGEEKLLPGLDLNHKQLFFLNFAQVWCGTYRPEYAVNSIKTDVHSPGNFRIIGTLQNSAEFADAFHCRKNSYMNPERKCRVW
Briefly: Ex vivo NEP-inhibitory activity in kidney homogenates of treated SHR (GAAP substrate). To be noted: oral 30 µmoles/kg; for inhibition at 30 µmol/kg: rat, SHR kidneys. More on the design: After the removal of the kidneys from SHR, the renal tissue was homogenized; from tissue; host or cells: kidney homogenate of spontaneously hypertensive rats (SHR); species or system spontaneously hypertensive rats (SHR). On the procedure:
(§1) The ex-vivo ACE/NEP-inhibitory activity, in particular, was determined by evaluating the enzymatic activity in tissue homogenates (lung and kidney for ACE and NEP activity, respectively) from spontaneously hypertensive rats (SHR) treated with the tested compounds by intravenous or oral route.
The ex vivo NEP-inhibitory activity was evaluated according to the procedure reported in the literature by M. Orlowsky et al., in Biochemistry 1981, 20, 4942-4950.
The inhibitory activity of the compounds of formula I was evaluated in kidneys of spontaneously hypertensive rats (SHR), 5 minutes after i.v. injection (0.6 and 21 µmoles/kg) and 30 minutes, 60 minutes and 4 hours after oral administration (30 µmoles/kg) of the tested compounds.
After the removal of the kidneys from SHR, the renal tissue was homogenized and incubated for 15 minutes at 37°C in the presence of Glutaryl-Ala-Ala-Phe-2-naphthylamide (GAAP), as a substrate, and aminopeptidase M at pH 7.6.
The reaction was stopped by adding an aqueous solution at 10% of trichloroacetic acid.
The released 2-naphthylamine was determined by adding fast garnet dye (2 ml).
Enzyme reaction rates were determined by measuring the increase in the optical density at 524 nm (OD524) with respect to a standard obtained with 2-naphthylamine complexed with fast garnet.
The NEP-inhibitory activity of the tested compounds was expressed as percentage of NEP-inhibition in SHR kidneys.

A further assay has as its target T2, ACE (Rattus norvegicus, UniProt P47820).
T2 construct: After the removal of the lungs from SHR, the lung tissue was homogenized; from tissue; host or cells: lung homogenate of spontaneously hypertensive rats (SHR)
T2 sequence (P47820 36-1313): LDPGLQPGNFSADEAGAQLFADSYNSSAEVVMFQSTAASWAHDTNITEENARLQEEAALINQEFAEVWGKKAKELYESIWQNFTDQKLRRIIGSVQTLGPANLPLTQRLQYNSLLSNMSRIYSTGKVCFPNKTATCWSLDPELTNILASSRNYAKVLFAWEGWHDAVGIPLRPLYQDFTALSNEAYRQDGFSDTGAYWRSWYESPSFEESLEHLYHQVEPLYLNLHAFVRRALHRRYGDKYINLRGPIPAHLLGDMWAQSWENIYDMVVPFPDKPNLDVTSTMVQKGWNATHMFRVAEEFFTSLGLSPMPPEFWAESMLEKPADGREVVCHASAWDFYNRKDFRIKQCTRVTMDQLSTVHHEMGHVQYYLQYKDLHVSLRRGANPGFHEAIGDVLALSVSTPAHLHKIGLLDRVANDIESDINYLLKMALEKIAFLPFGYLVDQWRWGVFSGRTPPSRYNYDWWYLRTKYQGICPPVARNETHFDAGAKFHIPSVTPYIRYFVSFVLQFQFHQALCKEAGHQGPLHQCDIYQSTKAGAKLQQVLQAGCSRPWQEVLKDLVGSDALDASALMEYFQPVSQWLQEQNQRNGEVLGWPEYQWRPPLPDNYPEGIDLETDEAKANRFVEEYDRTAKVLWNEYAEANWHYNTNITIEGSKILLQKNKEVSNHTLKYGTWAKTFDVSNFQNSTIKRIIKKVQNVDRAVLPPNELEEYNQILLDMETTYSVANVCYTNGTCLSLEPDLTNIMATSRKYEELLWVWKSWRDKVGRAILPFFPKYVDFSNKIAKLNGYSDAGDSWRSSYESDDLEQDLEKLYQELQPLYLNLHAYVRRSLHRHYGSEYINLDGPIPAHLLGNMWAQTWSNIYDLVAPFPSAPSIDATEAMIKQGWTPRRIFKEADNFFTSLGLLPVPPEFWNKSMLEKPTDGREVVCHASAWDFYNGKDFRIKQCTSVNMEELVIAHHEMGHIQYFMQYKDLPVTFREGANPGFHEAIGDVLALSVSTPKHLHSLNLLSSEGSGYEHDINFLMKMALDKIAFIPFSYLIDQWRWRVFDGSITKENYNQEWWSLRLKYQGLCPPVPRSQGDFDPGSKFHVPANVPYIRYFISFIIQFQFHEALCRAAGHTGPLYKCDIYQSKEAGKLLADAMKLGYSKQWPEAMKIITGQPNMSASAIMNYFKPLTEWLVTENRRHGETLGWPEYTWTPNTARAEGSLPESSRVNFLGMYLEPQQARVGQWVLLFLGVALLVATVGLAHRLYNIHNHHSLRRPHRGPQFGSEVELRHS
Nature of the assay: Ex vivo ACE-inhibitory activity in lung homogenates of treated SHR (radiometric, [3H]Hyp-Gly-Gly). As to conditions: SHR lungs, oral 30 µmoles/kg. More on the design: species or system spontaneously hypertensive rats (SHR). On the procedure:
as §1
The ex vivo ACE-inhibitory activity was evaluated by using a radiometric assay method, as reported in the literature by J. W. Ryan et al. in Biochem. J. (1977), 167, 501-504.
The inhibitory activity of the compounds of formula I was evaluated in lungs of spontaneously hypertensive rats (SHR), 5 minutes after i.v. injection (0.6 and 21 µmoles/kg) and 30 minutes, 60 minutes and 4 hours after oral administration (30 µmoles/kg) of the tested compounds.
After the removal of the lungs from SHR, the lung tissue was homogenized and incubated for 2 hours at 37°C in the presence of [^3H]Hyp-Gly-Gly, as a substrate.
The reaction was stopped by adding hydrochloric acid.
The released radiolabelled hyppuric acid was extracted with ethyl acetate and counted by liquid scintillation spectrometry, according to conventional methods.
The ACE-inhibitory activity of the tested compounds was expressed as percentage of ACE-inhibition in SHR lungs.

Setting [1] is: 30 minutes after administration, read-out: NEP-inhibition (kidneys) 30 minutes.
[2] abbreviates: 30 minutes after administration, read-out: ACE-inhibition (lungs) 30 minutes.
[3] abbreviates: 4 hours after administration, read-out: ACE-inhibition (lungs) 4 hours.

The inhibition is the share of the control response that was lost under treatment.

Like-named read-outs stand apart in the source and are kept apart here.

Turning to `O=C(N[C@@H](Cc1ccccc1)C(=O)O)C(CS)Cc1ccc2c(c1)OCO2` (stereo partly drawn) [Compound R-1, N-[3-mercapto-2-(3,4-methylenedioxyphenyl)methyl-propionyl]-(S)-phenylalanine], the “NEP-inhibition (kidneys) 4 hours” value on NEP (4 hours after administration) is “not active”. For the same compound, the figures for the inhibition at 30 µmol/kg on NEP (setting [1]), at ACE (setting [2]) and at ACE (setting [3]) were 5%, 25% and 20%, respectively.

Take `O=C(N[C@@H](Cc1ccc(O)cc1)C(=O)O)C(CS)Cc1ccc2c(c1)OCO2` (stereo partly drawn) [Compound R-2, N-[3-mercapto-2-(3,4-methylenedioxyphenyl)methyl-propionyl)-(S)-tyrosine]: on NEP (4 hours after administration), the “NEP-inhibition (kidneys) 4 hours” value was “not active”. The inhibition at 30 µmol/kg at NEP (setting [1]) came to 30%; at ACE (setting [2]), 30%; at ACE (setting [3]), 25%.

Turning to `CC(CS)C(=O)N[C@@H](Cc1ccc(O)cc1)C(=O)O` (stereo partly drawn) [Compound R-3, N-(3-mercapto-2-methylpropanoyl)-L-tyrosine], the inhibition at 30 µmol/kg at NEP (setting [1]) was 10%; at NEP (4 hours after administration, read-out: NEP-inhibition (kidneys) 4 hours) it was 5%; at ACE (setting [2]), 25%; on ACE (setting [3]) it was 20%.

Regarding `CC(CS)C(=O)N[C@@H](Cc1c[nH]c2ccccc12)C(=O)O` (stereo partly drawn) [Compound R-4, N-(3-mercapto-2-methylpropanoyl)-L-triptophan], the “NEP-inhibition (kidneys) 30 minutes” value at NEP (30 minutes after administration) is recorded as “not active”. Also, at NEP (4 hours after administration), the “NEP-inhibition (kidneys) 4 hours” value is recorded as “not active”. In addition, the inhibition at 30 µmol/kg on ACE (setting [2]) turned out to be 25%; at ACE (setting [3]) it was 10%.
